Data reported in patent publication US6001815A, “Depsipeptides containing N-substituted glycine residue” (Nisshin Flour Milling Co., Ltd., priority 1997, dated 1999).
Where a SMILES comes first, the peptide text is derived from it. [ ]: non-standard residue; d: D form. The star is where a group is joined. Fmoc = O=C(OCC1c2ccccc2-c2ccccc21)*; X1 = CCCCCCCCCCCC(CC(=O)O)O*; NBuGly = CCCCNCC(=O)O

System: apolipoprotein E production in Hep G2 cells
Assay: Productivity of apolipoprotein E in Hep G2 cells, determined by enzyme immunoassay
Type: cell-based, human
Conditions: Hep G2 culture supernatant, methanol control defined as 100
Method: It will be shown below that the depsipeptides of the invention may influence upon the productivity of apolipoprotein E in Hep G2 cells, together with the test procedure as used.
First, Hep G2 cells of 1×10^5 cells were suspended in Dulbecco's modified Eagle medium (manufactured by Nissui Seiyaku Co., Ltd.; hereinafter referred to as "D-MEM medium") containing 10% fetal bovine serum and 1 ml each of the suspension was poured into a 24-well tissue culture plate. The cells were cultivated at 37° C. under atmosphere of a mixed gas composed of 5% carbon dioxide and 95% air. […]
It was again washed three times with 300 μl of PBS, 50 μl of the above sample solution (the medium for Hep G2 cells) was added and the mixture was allowed to stand at room temperature for 2 hours. […] The reaction was quenched by the addition of 100 μl of 2N sulfuric acid and absorbance was measured at 490 nm using absorbance at 650 nm as a control. An amount of apolipoprotein E in the present depsipeptide was determined upon the calibration curve drawn up when a commercially available apolipoprotein E (Chemicon Co., Ltd., U.S.A.) was used as a standard.
In the Test Example, the same procedure as described above was carried out except that methanol alone was added instead of the methanolic solution of the depsipeptide of this invention and an apolipoprotein E amount was measured as a control. […]

CCCCCCCCCCCC(CC(=O)O)OC(=O)CN(CCCC)C(=O)CN(CCCC)C(=O)[C@H](CC(=O)O)NC(=O)[C@@H](NC(=O)OCC1c2ccccc2-c2ccccc21)C(C)C (some centres unmarked) [Compound 2] (Fmoc-VD[NBuGly][NBuGly]-X1)
Relative amount of apolipoprotein E (%) (Conc. 1 μM): 256%
Relative amount of apolipoprotein E (%) (Conc. 5 μM): 389%
